Measurements from US6300331A, “Naphthalimidobenzamide derivatives” (Taiho Pharmaceutical Co., Ltd., priority 1998, dated 2001).
Structures can show the parent of a compound that is named as a salt.

Tested on: KB cells
Assay: Cytotoxicity against KB cells (crystal violet dying method)
Format: cell-based
Conditions: Homo sapiens; KB cells, 72 hours, 50% proliferation inhibition; read-out: Cytotoxicity [IC50 (μM)]
Experimental: Test 1 Cytotoxicity against KB cells
The residue was re-suspended in an MEM medium containing 10% fetal bovine serum. Then, an equivalent amount of a 0.2% trypan blue solution was added to a portion of the cell suspension, followed by mixing. The number of living cells which had not been dyed with the trypan blue was counted by a hemocytometer and the suspension was diluted and adjusted with the above-described culture medium to give a cell concentration of 1×10^4 cells/ml. Each well of a 96-well plate was inoculated with a 100-μl portion of the resulting suspension, in other words, was inoculated to give a concentration of 1×10^3 cells/well.
To the cells cultured in a CO2 incubator for 24 hours after the inoculation was added 100 μl/well of a medicament solution, followed by culturing for 72 hours. To a control was added 100 μl of an MEM medium.
The cytotoxicity of the medicament was determined from a change in the number of the cells by using the crystal violet dying method.
After washing the plate with water, 100 μl/well of a 0.05% crystal violet solution dissolved in 20% methanol was added to dye the cells therewith for about 15 minutes. The plate was washed to remove the unbound crystal violet, followed by the addition of 100 μl/well of 0.05M NaH2 PO4 /ethanol (1:1 v/v), whereby the crystal violet bound to the cellular protein was extracted.

SMILES | IC50
O=C(NCCNCCN1C(=O)c2cccc3cccc(c23)C1=O)c1cc(C(=O)NCCNCCN2C(=O)c3cccc4cccc(c34)C2=O)cc(N2C(=O)c3cccc4cccc(c34)C2=O)c1 [Example 1, 1,3-bis[N-[2-[[2-(1,8-naphthalimido)ethyl]amino]ethyl]carbamoyl]-5-(1,8-naphthalimido) benzene dimethanesulfonate] | 0.059 µM
O=C(NCCNCCN1C(=O)c2cccc3cc([N+](=O)[O-])cc(c23)C1=O)c1cc(C(=O)NCCNCCN2C(=O)c3cccc4cc([N+](=O)[O-])cc(c34)C2=O)cc(N2C(=O)c3cccc4cccc(c34)C2=O)c1 [Example 2, 1,3-bis[N-[2-[[2-(3-nitro-1,8-naphthalimido)ethyl]amino]ethyl]carbamoyl]-5(1,8-naphthalimido)benzene dimethanesulfonate] | 0.0061 µM
O=C(NCCNCCn1c2ccccc2c2ccncc21)c1cc(C(=O)NCCNCCn2c3ccccc3c3ccncc32)cc(N2C(=O)c3cccc4cc([N+](=O)[O-])cc(c34)C2=O)c1 [Example 3, 1,3-bis[N-[2-[[2-(pyrido[3,4-b]indol-9-yl)ethyl]amino]ethyl]carbamoyl]-1-(3-nitro-1,8-naphthalimido)benzene tetratrifluoroacetate] | 2.6 µM
O=C(NCCNCCN1C(=O)c2cccc3cccc(c23)C1=O)c1cc(C(=O)NCCNCCN2C(=O)c3cccc4cccc(c34)C2=O)cc(N2C(=O)c3cccc4cc([N+](=O)[O-])cc(c34)C2=O)c1 [Example 6, 1,3-bis[N-[2-[[2-(1,8-naphthalimido)ethyl]amino]ethyl]carbamoyl]-5-(3-nitro-1,8-naphthalimido)benzene and dihydrochloride thereof] | 0.064 µM
O=C(NCCNCCN1C(=O)c2cc3ccccc3cc2C1=O)c1cc(C(=O)NCCNCCN2C(=O)c3cc4ccccc4cc3C2=O)cc(N2C(=O)c3cccc4cc([N+](=O)[O-])cc(c34)C2=O)c1 [Example 7, 1,3-bis[N-[2-[[2-(2,3-naphthalimido)ethyl]amino]ethyl]carbamoyl]-5-(3-nitro-1,8-naphthalimido)benzene dihydrochloride] | 4.1 µM
O=C(NCCNCCN1C(=O)c2cccc3c(Cl)ccc(c23)C1=O)c1cc(C(=O)NCCNCCN2C(=O)c3cccc4c(Cl)ccc(c34)C2=O)cc(N2C(=O)c3cccc4cc([N+](=O)[O-])cc(c34)C2=O)c1 [Example 8, 1,3-bis[N-[2-[[2-(4-chloro-1,8-naphthalimido)ethyl]amino]ethyl]carbamoyl]-5-(3-nitro-1,8-naphthalimido)benzene dihydrochloride] | 0.05 µM
O=C(NCCNCCN1C(=O)c2cccc3c(Cl)ccc(c23)C1=O)c1cc(C(=O)NCCNCCN2C(=O)c3cccc4c(Cl)ccc(c34)C2=O)cc(N2C(=O)c3cccc4cccc(c34)C2=O)c1 [Example 9, 1,3-bis[N-[2-[[2-(4-chloro-1,8-naphthalimido)ethyl]amino]ethyl]carbamoyl]-5-(1,8-naphthalimido)benzene dihydrochloride] | 0.023 µM
O=C(NCCCNCCCN1C(=O)c2cccc3cc([N+](=O)[O-])cc(c23)C1=O)c1cc(C(=O)NCCCNCCCN2C(=O)c3cccc4cc([N+](=O)[O-])cc(c34)C2=O)cc(N2C(=O)c3cccc4cc([N+](=O)[O-])cc(c34)C2=O)c1 [Example 11, 1,3-bis[N-[3-[[3-(3-nitro-1,8-naphthalimido)propyl]amino]propyl]carbamoyl]-5-(3-nitro-1,8-naphthalimido)benzene dihydrochloride] | 0.14 µM
O=C(NCCNCCNC(=O)c1cnc2ccccc2c1)c1cc(C(=O)NCCNCCN2C(=O)c3cccc4cc([N+](=O)[O-])cc(c34)C2=O)cc(N2C(=O)c3cccc4cc([N+](=O)[O-])cc(c34)C2=O)c1 [Example 13, 1-(3-nitro-1,8-naphthalimido)-3-[N-[2-[[2-(3-nitro-1,8-naphthalimido)ethyl]amino]ethyl]carbamoyl]-5-[N-[2-[[2-(quinoline-3-carbonylamino)ethyl]amino]ethyl]carbamoyl]benzene trihydrochloride] | 1.6 µM
O=C(NCCNCCNC(=O)c1ccnc2ccccc12)c1cc(C(=O)NCCNCCN2C(=O)c3cccc4cc([N+](=O)[O-])cc(c34)C2=O)cc(N2C(=O)c3cccc4cc([N+](=O)[O-])cc(c34)C2=O)c1 [Example 14, 1-(3-nitro-1,8-naphthalimido)-3-[N-[2-[[2-(3-nitro-1,8-naphthalimido)ethyl]amino]ethyl]carbamoyl]-5-[N-[2-[[2-(quinoline-4-carbonylamino)ethyl]amino]ethyl]carbamoyl]benzene trihydrochloride] | 1.3 µM
O=C(NCCNCCNC(=O)c1cnc2ccccc2n1)c1cc(C(=O)NCCNCCN2C(=O)c3cccc4cc([N+](=O)[O-])cc(c34)C2=O)cc(N2C(=O)c3cccc4cc([N+](=O)[O-])cc(c34)C2=O)c1 [Example 15, 1-(3-nitro-1,8-naphthalimido)-3-[N-[2-[[2-(3-nitro-1,8-naphthalimido)ethyl]amino]ethyl]carbamoyl]-5-[N-[2-[[2-(quinoxaline-2-carbonylamino)ethyl]amino]ethyl]carbamoyl]benzene trihydrochloride] | 0.21 µM
Cn1c(C(=O)NCCNCCNC(=O)c2cc(C(=O)NCCNCCN3C(=O)c4cccc5cc([N+](=O)[O-])cc(c45)C3=O)cc(N3C(=O)c4cccc5cc([N+](=O)[O-])cc(c45)C3=O)c2)cc2ccccc21 [Example 16, 1-(3-nitro-1,8-naphthalimido)-3-[N-[2-[[2-(3-nitro-1,8-naphthalimido)ethyl]amino]ethyl]carbamoyl]-5-[N-[2-[[2-(1-methylindole-2-carbonylamino)ethyl]amino]ethyl]carbamoyl]benzene dihydrochloride] | 6.6 µM
O=C(NCCNCCN1C(=O)c2cc3ccccc3cc2C1=O)c1cc(C(=O)NCCNCCN2C(=O)c3cccc4cc([N+](=O)[O-])cc(c34)C2=O)cc(N2C(=O)c3cccc4cc([N+](=O)[O-])cc(c34)C2=O)c1 [Example 17, 1-[N-[2-[[2-(2,3-naphthalimido)ethyl]amino]ethyl]carbamoyl]-3-(3-nitro-1,8-naphthalimido)-5-[N-[2-[[2-(3-nitro-1,8-naphthalimido)ethyl]amino]ethyl]carbamoyl]benzene dihydrochloride] | 0.28 µM
CN(C)CCCNC(=O)c1cc(NC(=O)CCNC(=O)c2cc(C(=O)NCCNCCN3C(=O)c4cccc5cc([N+](=O)[O-])cc(c45)C3=O)cc(N3C(=O)c4cccc5cc([N+](=O)[O-])cc(c45)C3=O)c2)cn1C [Example 33, 1-[N-[2-[N-[2-[N-(3-dimethylaminopropyl)carbamoyl]-1-methylpyrrol-4-yl]carbamoyl]ethyl]carbamoyl]-3-(3-nitro-1,8-naphthalimido)-5-[N-[2-[[2-(3-nitro-1,8-naphthalimido)ethyl]amino]ethyl]carbamoyl]benzene dihydrochloride] | 7.1 µM
CN(C)CCCNC(=O)c1cc(NC(=O)CCCNC(=O)c2cc(C(=O)NCCNCCN3C(=O)c4cccc5cc([N+](=O)[O-])cc(c45)C3=O)cc(N3C(=O)c4cccc5cc([N+](=O)[O-])cc(c45)C3=O)c2)cn1C [Example 34, 1-[N-[3-[N-[2-[N-(3-dimethylaminopropyl)carbamoyl]-1-methylpyrrol-4-yl]carbamoyl]propyl]carbamoyl]-3-(3-nitro-1,8-naphthalimido)-5-[N-[2-[[2-(3-nitro-1,8-naphthalimido)ethyl]amino]ethyl]carbamoyl]benzene dihydrochloride] | 4.7 µM
Cn1cc(NC(=O)c2cc(NC=O)cn2C)cc1C(=O)NCCNCCNC(=O)c1cc(C(=O)NCCNCCN2C(=O)c3cccc4cc([N+](=O)[O-])cc(c34)C2=O)cc(N2C(=O)c3cccc4cc([N+](=O)[O-])cc(c34)C2=O)c1 [Example 38, 1-[N-[2-[[2-[4-(4-formamido-1-methylpyrrole-2-carboxyamido)-1-methylpyrrole-2-carboxamido]ethyl]amino]ethyl]carbamoyl]-3-(3-nitro-1,8-naphthalimido)-5-[N-[2-[[2-(3-nitro-1,8-naphthalimido)ethyl]amino]ethyl]carbamoyl]benzene dihydrochloride] | 6.9 µM
O=C(NCCNCCN1C(=O)c2cccc3cc([N+](=O)[O-])cc(c23)C1=O)c1cccc(N2C(=O)c3cccc4cc([N+](=O)[O-])cc(c34)C2=O)c1 [Example 39, 1-(3-nitro-1,8-naphthalimido)-3-[N-[2-[[2-(3-nitro-1,8-naphthalimido)ethyl]amino]ethyl]carbamoyl]benzene hydrochloride] | 0.0053 µM
O=C(NCCNCCCN1C(=O)c2cccc3cc([N+](=O)[O-])cc(c23)C1=O)c1cccc(N2C(=O)c3cccc4cc([N+](=O)[O-])cc(c34)C2=O)c1 [Example 40 (A), 1-(3-nitro-1,8-naphthalimido)-3-[N-[2-[[3-(3-nitro-1,8-naphthalimido)propyl]amino]ethyl]carbamoyl]benzene hydrochloride] | 0.003 µM
O=C(NCCCNCCN1C(=O)c2cccc3cc([N+](=O)[O-])cc(c23)C1=O)c1cccc(N2C(=O)c3cccc4cc([N+](=O)[O-])cc(c34)C2=O)c1 [Example 40 (B), 1-(3-nitro-1,8-naphthalimido)-3-[N-[3-[[2-(3-nitro-1,8-naphthalimido)ethyl]amino]propyl]carbamoyl]benzene hydrochloride] | 0.00023 µM
